In assay [1] the target is Phosphatidylinositol 3-kinase catalytic subunit type 3 (Homo sapiens, UniProt Q8NEB9). The assay is described as follows: Selectivity interaction (ProQinase) EUB0000171b PIK3C3.
Assay [2] addresses T1, Serine/threonine-protein kinase Nek9 (Homo sapiens) (UniProt Q8TD19).
T1 sequence (whole entry): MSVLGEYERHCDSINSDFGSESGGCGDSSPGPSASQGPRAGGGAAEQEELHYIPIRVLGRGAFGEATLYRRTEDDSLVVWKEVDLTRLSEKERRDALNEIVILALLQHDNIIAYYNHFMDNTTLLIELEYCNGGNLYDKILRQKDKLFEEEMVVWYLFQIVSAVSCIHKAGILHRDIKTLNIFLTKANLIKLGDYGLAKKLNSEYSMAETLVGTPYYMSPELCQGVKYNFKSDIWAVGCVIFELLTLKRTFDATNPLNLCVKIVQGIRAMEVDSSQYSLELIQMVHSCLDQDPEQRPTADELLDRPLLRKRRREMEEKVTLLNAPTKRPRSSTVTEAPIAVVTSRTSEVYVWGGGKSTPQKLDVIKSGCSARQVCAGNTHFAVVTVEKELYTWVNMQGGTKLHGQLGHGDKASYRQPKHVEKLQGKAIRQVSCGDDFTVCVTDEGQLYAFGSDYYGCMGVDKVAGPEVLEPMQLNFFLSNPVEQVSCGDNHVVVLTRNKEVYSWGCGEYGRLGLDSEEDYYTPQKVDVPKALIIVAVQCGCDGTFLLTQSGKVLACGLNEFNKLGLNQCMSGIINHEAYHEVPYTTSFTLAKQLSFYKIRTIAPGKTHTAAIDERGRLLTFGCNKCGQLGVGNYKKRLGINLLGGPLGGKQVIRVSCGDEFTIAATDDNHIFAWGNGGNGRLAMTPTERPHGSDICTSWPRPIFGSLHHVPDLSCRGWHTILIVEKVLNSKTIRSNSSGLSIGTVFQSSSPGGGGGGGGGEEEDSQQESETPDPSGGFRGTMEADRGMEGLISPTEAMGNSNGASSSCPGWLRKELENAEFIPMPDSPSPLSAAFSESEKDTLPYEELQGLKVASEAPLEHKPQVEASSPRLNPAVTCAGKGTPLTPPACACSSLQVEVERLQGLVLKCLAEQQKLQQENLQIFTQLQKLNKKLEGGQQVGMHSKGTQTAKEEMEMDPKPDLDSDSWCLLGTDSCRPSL
The assay is described as follows: Selectivity interaction (Ambit KINOMEscan and KiNATiv profiling in Jurkat cells) EUB0000090b NEK9. The class given is cell-based. The note with it: at 1 µM.

The target in assay [3] is Fibroblast growth factor receptor 2 (Homo sapiens) (UniProt P21802). The assay is described as follows: Selectivity interaction (KinomeScan (DiscoverX)) EUB0000045b FGFR2.
Assay [4] addresses T2, Myotonin-protein kinase (Homo sapiens) (UniProt Q09013).
T2 sequence (whole entry): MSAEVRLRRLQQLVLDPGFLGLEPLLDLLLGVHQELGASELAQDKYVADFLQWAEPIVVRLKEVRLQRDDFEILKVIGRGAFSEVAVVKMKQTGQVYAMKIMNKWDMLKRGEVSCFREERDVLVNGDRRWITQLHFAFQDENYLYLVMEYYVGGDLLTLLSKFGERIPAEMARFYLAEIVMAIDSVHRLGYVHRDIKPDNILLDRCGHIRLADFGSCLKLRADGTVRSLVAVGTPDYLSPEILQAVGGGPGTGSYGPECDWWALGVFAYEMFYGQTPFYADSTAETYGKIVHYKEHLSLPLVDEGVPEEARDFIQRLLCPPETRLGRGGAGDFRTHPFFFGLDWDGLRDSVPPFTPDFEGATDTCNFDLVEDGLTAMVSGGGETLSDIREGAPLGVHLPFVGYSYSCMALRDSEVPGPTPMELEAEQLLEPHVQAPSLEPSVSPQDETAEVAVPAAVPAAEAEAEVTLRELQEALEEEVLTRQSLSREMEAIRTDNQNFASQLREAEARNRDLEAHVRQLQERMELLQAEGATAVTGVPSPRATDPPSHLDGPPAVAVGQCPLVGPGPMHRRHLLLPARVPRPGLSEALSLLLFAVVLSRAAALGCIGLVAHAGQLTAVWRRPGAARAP
The assay is described as follows: Selectivity interaction (KinomeScan (DiscoverX)) EUB0000666a DMPK. The note with it: at 10 µM.

The target in assay [5] is Mitogen-activated protein kinase 3 (Homo sapiens, UniProt P27361). The assay is described as follows: Selectivity interaction (Kinase panel (Z-LYTE Assay)) EUB0001632a MAPK3. The note with it: at 10 µM.
For assay [6], the target named is Protein arginine N-methyltransferase 6 (Homo sapiens, UniProt Q96LA8). The note with it: at 10 µM.
The target of assay [7] is Proto-oncogene tyrosine-protein kinase Src (Homo sapiens, UniProt P12931). The assay is described as follows: Selectivity interaction (Kinase panel (DSF assay)) EUB0001559a SRC.
Chain of Proto-oncogene tyrosine-protein kinase Src (P12931 2-536 limits assumed): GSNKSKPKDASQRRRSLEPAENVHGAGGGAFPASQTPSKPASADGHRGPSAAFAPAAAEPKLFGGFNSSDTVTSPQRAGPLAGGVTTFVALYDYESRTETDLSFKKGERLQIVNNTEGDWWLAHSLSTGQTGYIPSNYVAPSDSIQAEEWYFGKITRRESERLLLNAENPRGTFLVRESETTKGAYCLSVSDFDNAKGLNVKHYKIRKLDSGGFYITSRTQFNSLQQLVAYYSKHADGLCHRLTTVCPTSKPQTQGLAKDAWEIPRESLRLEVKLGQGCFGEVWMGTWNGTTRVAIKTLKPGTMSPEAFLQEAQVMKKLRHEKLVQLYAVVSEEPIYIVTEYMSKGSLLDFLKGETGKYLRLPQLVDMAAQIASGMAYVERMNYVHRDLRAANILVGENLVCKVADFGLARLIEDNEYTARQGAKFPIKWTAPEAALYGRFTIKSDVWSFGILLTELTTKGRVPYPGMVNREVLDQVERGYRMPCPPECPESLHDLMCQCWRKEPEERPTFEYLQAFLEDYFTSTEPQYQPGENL

Chain of Fibroblast growth factor receptor 2 (Homo sapiens) (P21802 22-821 limits assumed): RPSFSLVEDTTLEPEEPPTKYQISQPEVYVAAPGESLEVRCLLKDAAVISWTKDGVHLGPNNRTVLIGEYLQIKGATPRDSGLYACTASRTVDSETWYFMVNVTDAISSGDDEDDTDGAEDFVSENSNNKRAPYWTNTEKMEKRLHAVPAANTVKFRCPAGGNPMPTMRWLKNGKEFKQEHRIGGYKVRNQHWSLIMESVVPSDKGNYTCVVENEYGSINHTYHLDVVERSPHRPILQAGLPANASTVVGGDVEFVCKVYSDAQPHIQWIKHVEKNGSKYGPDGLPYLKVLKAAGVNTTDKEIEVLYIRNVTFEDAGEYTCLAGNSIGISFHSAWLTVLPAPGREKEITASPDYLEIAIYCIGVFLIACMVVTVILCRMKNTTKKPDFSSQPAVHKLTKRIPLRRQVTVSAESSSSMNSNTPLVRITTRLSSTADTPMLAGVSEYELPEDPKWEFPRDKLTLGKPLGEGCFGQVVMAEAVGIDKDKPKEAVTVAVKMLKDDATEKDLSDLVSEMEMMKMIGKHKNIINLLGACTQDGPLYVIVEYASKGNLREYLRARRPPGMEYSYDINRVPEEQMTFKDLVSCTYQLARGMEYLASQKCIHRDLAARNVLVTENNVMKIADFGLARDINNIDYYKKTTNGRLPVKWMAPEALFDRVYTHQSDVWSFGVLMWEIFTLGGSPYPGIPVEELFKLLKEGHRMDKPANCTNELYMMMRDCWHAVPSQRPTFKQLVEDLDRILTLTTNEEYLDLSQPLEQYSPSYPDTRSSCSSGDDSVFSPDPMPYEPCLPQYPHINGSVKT
Chain of Phosphatidylinositol 3-kinase catalytic subunit type 3 (Q8NEB9 whole entry): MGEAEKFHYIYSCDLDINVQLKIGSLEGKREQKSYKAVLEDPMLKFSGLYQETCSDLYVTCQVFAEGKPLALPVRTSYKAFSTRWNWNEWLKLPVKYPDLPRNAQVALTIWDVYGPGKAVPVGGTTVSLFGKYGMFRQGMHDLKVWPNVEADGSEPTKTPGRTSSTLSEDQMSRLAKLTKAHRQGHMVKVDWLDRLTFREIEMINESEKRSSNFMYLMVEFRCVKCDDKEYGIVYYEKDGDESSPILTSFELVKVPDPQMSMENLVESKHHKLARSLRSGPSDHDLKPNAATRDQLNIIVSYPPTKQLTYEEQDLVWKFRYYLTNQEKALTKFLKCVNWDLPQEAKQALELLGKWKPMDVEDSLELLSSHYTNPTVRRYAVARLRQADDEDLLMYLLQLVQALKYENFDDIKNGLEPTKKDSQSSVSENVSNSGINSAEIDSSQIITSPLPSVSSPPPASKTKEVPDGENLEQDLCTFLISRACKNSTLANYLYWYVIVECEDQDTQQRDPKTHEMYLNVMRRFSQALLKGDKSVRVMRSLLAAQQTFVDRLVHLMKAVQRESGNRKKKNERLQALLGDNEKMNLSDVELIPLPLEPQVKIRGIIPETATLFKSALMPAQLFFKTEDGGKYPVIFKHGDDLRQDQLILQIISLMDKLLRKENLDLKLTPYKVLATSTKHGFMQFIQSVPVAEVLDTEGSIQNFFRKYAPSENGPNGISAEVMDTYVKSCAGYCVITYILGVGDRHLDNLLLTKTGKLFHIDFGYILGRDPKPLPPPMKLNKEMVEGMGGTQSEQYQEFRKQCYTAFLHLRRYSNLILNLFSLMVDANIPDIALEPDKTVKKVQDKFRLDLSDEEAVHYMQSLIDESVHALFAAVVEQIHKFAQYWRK
Chain of Protein arginine N-methyltransferase 6 (Q96LA8 whole entry, looked up): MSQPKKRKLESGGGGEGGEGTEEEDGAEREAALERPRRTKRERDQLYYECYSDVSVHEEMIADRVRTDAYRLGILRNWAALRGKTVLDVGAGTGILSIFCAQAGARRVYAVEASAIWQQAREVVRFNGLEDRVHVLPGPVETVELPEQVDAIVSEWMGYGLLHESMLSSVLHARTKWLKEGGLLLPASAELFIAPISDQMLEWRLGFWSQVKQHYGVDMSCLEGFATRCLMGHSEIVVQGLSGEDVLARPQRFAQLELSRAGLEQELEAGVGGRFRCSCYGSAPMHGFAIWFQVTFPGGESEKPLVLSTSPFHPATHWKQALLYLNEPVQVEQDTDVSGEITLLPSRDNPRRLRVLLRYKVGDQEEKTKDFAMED
Chain of Mitogen-activated protein kinase 3 (P27361 whole entry): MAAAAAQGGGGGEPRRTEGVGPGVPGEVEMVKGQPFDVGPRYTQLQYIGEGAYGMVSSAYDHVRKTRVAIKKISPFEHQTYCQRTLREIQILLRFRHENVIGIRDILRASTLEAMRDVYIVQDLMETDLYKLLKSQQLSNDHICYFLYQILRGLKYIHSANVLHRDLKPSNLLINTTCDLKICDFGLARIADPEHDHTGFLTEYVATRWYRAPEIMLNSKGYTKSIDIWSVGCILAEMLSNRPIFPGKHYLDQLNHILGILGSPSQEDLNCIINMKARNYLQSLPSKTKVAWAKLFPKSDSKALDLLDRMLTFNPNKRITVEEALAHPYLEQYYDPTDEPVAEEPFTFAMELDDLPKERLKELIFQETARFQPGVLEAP

Turning to `C=CC(=O)Nc1cccc(C(=O)Nc2ccc(Nc3cc(-c4[nH]c(SC)nc4C)ccn3)cc2)c1`, the % of control worked out at 108% in assay [1] (at 1 µM) and 103% in assay [1] (at 5 µM).
As to `CN(C)C/C=C/C(=O)Nc1ccc(C(=O)N2CCCC(Nc3ncc(Cl)c(-c4c[nH]c5ccccc45)n3)C2)cc1` (centres undefined), the % of control in assay [2] came to 100%.
Consider `C=CC(=O)Nc1cc(-n2c(=O)ccc3cnc4ccc(-c5ccc(NS(C)(=O)=O)cc5)cc4c32)ccc1C`, for which the values for the % of control in assay [3] (at 1 µM) and in assay [3] (at 10 µM) were 96% and 92%, respectively.
As to `O=C(NOC[C@H](O)CO)c1ccc(F)c(F)c1Nc1ccc(I)cc1F`, the % of control in assay [4] stood at 90%.
As for `Cn1cc(-n2cnc3c(NCc4nc5cc(Cl)c(Cl)cc5[nH]4)nc(N4CCOCC4)nc32)cn1`, the % of control in assay [5] was -1.61%.
`CNCCN1CCC(c2cc(CN(C)C(=O)c3cccc(Oc4ccccc4)c3)ccn2)CC1` had a % activity in assay [6] of 42%.
In the case of `CN(C(=O)c1cnn2cccnc12)c1cc2c(cc1N1CCOCC1)C(=O)N(C[C@@H](F)C(C)(C)O)C2`, the dTM in assay [7] is -0.3 K.

The record behind these values is ChEMBL document CHEMBL5465560, “Selectivity Literature for EUbOPEN Chemogenomic Library” (2024).
